According to patent US8455450B2, “Methods for obtaining a therapeutically effective amount of hematopoietic precursor cells and long term engraftment thereof” (Biokine Therapeutics Ltd., priority 2006, dated 2013):
Bridge positions count the residues as written; N and C are the ends. Square brackets hold non-standard residues; d marks the D form. Peptide text beside a SMILES is read from it. * marks the point of attachment. 2Nal = N[C@@H](Cc1ccc2ccccc2c1)C(=O)O; Benzoyl(4-F) = O=C(c1ccc(F)cc1)*; Cit = NC(=O)NCCC[C@H](N)C(=O)O

Tests used:
[1] = system: PC3-CXCR4.5 cells; assay: MIP3α secretion by CXCR4-overexpressing PC3-CXCR4.5 cells (ELISA); format: cell-based; settings: transfection with CXCR4-specific or control siRNA
Text: A PC3 prostate cell line that overexpresses high levels of CXCR4 was generated. […] FIG. 1A presents FACS histograms of PC3 cells (left panel) and a single cell clone with stable overexpression of CXCR4, GFP and luc genes (PC3-CXCR4.5, right panel) that were stained for the control (IgG2a-PE, full histograms) and CXCR4 (IgG2a-12G5, empty histograms) antibodies.
In this example, regulation of the chemokine MIP3α (macrophage inflammatory protein 3α) was examined. […] In FIG. 1B, PC3 (left panel) and PC3-CXCR4.5 (right panel) cells were stimulated with the indicated concentrations of CXCL12 for 48 hours and MIP3α secretion was assessed by ELISA. The results represent the average of triplicates±STDEV.
The effects of the CXCR4 antagonist AMD3100 and of 4F-benzoyl-TN14003 (4FB-TN14003), hitherto known as a CXCR4 antagonist, on MIP3α secretion were further tested. […] In FIG. 10, CXCR4 signaling in PC3 (left panel) and PC3-CXCR4.5 (right panel) cells was inhibited with anti-CXCL12 antibodies (αCXCL12) and Pertussis toxin (PTX) treatments alone or in combination with CXCL12, as indicated. Secretion of MIP3α was assessed by ELISA. The results represent the average of triplicates±STDEV.
Spontaneous secretion of MIP3α is CXCL12 and PTX independent in these cells.

[2] = system: hematopoietic stem cells (HSCs); assay: Hematopoietic stem cell assay: transplantation of mobilized blood cells into lethally irradiated mice, survival; format: in vivo, C57BL/6 mice; settings: 2 h
Protocol: C57BL/6 mice, served as donors, were injected with 5 mg/kg of either 4F-benzoyl-TN14003 or AMD3100. 2 h later peripheral blood cells were collected following by ACK lysis and transferred into C57BL/6 recipient mice that were given a lethal dosing of irradiation (900 cGy) 24 h before i.v. injection of cells. A total cell obtained from 900 or 225 microliter of blood was transferred into single recipient mouse in a total volume of 200 μl PBS. Recipient mice transferred with cells obtained from blood of untreated mice or with normal BM cells were served as controls. Survival of mice was monitored for 4 months.
Although mobilization of HPCs may be of use for short-term repopulation in a transplantation setting, HSCs are required for long-term repopulation. To assess the effect of 4F-benzoyl-TN14003 on mobilization of murine HSCs, a transplantation model was used, in which donor C57Bl/6 mice were treated with 4F-benzoyl-TN14003 or AMD3100. After 2 h, blood was collected and cells isolated from an equal volume of blood obtained from each treated group (900 or 225 microliter in different experiments) were transferred for engraftment in lethally irradiated recipient C57Bl/6 mice. Survival of the recipient mice, indicative for long-term repopulating (LTR) activity and presence of HSCs, was monitored.

[3] = system: GR-1 positive cells, MNC and progenitors; assay: Cell counts in a bone marrow transplantation model; format: in vivo, mice; settings: 900 Rad irradiation, BM transplant 5×10^6/mouse; 5 mg/kg s.c.
Text: Mice received lethal total body irradiations of 900 Rad and were subsequently transplanted with BM cells from donor healthy mice (5×10^6/mouse). […] Flow cytometery was used to assess the number of cells in the blood and bone marrow (BM), and distinguish between the different populations. Cells were gated according to forward scatter and side scatter to exclude dead cells and to determine granulocytes (GR-1 positive cells) and mononuclear cells (MNC).

[4] = system: white-blood-cells (WBC); format: in vivo
[5] = system: granulocytes (GR-1 positive cells); assay: Granulocyte (GR-1 positive) counts in blood and bone marrow in a chemotherapy model; format: in vivo, mice; settings: CPM 250 mg/kg total i.p.; 4F-benzoyl-TN14003 5 mg/kg s.c., G-CSF 5 μg/mouse
Protocol: Mice received a total dose of 250 mg/kg cyclophosphamide (CPM) by two 0.25 ml intra-peritoneal injections scheduled at day 0 (150 mg/kg) and day 3 (100 mg/kg). Mice were subcutaneously treated with 0.2 ml of 4F-benzoyl-TN14003 (5 mg/kg) at the indicated time points, as detailed in FIG. 13A. Flow cytometery was used to assess the number of cells in the blood and bone marrow (BM), and distinguish between the different populations. Cells were gated according to forward scatter and side scatter to exclude dead cells and to identify granulocytes (GR-1 positive cells).
Mice received a total dose of 250 mg/kg CPM by two 0.25 ml intra-peritoneal injections scheduled at day 0 (150 mg/kg) and day 3 (100 mg/kg). Mice were subcutaneously treated with 0.2 ml of 4F-benzoyl-TN14003 (5 mg/kg) or G-CSF 5 μg/mouse or the combination of both at the indicated time points as detailed in FIG. 14A. Flow cytometery was used to assess the number of cells in the blood and bone marrow (BM) and distinguish between the different populations. Cells were gated according to forward scatter and side scatter to exclude dead cells and to determine granulocytes (GR-1 positive cells).

[6] = system: Streptococcus A; assay: Survival of mice upon bacterial infection in a chemotherapy model; format: in vivo; settings: CPM 250 mg/kg total; Streptococcus A 10^8/mouse s.c. day 0; 4F-benzoyl-TN14003 5 mg/kg s.c., G-CSF 5 μg/mouse
Protocol: Mice received a total dose of 250 mg/kg CPM by two 0.25 ml intra-peritoneal injections scheduled at day −5 (150 mg/kg) and day −2 (100 mg/kg). Mice were subcutaneously treated with 0.2 ml of 4F-benzoyl-TN14003 (5 mg/kg), alone or in combination with G-CSF (5 μg/mouse), at the time points indicated in FIG. 15A. On day 0, Streptococcus A were subcutaneously injected (10^8/mouse) and the mice were then treated as detailed in FIG. 15A.

[7] = 5 mg/kg s.c. 4F-benzoyl-TN14003 or AMD3100, 2 h, G-CSF 2.5 μg s.c. twice a day for 4 days, combination 18 h after last G-CSF
[8] = peak at 10 mg/kg s.c., 2 hours post-injection

## N=C(N)NCCC[C@H](NC(=O)[C@@H]1CSSC[C@H](NC(=O)[C@H](Cc2ccc3ccccc3c2)NC(=O)[C@H](CCCNC(=N)N)NC(=O)[C@H](CCCNC(=N)N)NC(=O)c2ccc(F)cc2)C(=O)N[C@@H](Cc2ccc(O)cc2)C(=O)N[C@@H](CCCNC(N)=O)C(=O)N[C@@H](CCCCN)C(=O)N[C@H](CCCCN)C(=O)N2CCC[C@H]2C(=O)N[C@@H](Cc2ccc(O)cc2)C(=O)N[C@@H](CCCNC(=N)N)C(=O)N[C@@H](CCCNC(N)=O)C(=O)N1)C(N)=O [4F-benzoyl-TN14003, 4F-benzoly-Arg-Arg-Nal-Cys-Tyr-Cit-Lys-DLys-Pro-Tyr-Arg-Cit-Cys-Arg-NH2] ({Benzoyl(4-F)}-RR[2Nal]CY[Cit]K[dK]PYR[Cit]CR-NH2; disulfide 4-13)
[1]
  CXCR4 dependence of induced MIP3α secretion: CXCR4 dependent
[2]; cells from 225 microliter of blood of donors given 5 mg/kg, day 33 post transplantation
  survival of lethally irradiated recipient mice: 70.6%
[2]; cells from 900 microliter of blood of donors given 5 mg/kg, until day 42 post transplantation
  survival of lethally irradiated recipient mice: one hundred
[3]
  GR-1 and MNC cell counts in the BM: stimulate GR-1 (left panel) and MNC (right panel) production in the BM
  GR-1 positive cells in the blood: mobilize GR-1 positive cells and reduce neutropenia
  progenitor cell counts (total, CFU-GM, CFU-M, BFU-E, CFU-GEMM) in the BM: stimulate production of various progenitors in the BM
[4]; 5 mg/kg s.c.
  MNCs in the blood, full return to the baseline level: 4 h
  activated macrophages in the blood, return to the baseline level: 24 h
  activated macrophages in the blood, time of peak: 1 h
  neutrophils in the blood, decrease to the baseline level: 24 h
  neutrophils in the blood, time of peak: 1 to 2 h
[4]; [7]
  Activated macrophages, fold elevation of cell counts from control: 4.2 fold
  MNC, fold elevation of cell counts from control: 2.3 fold
  Neutrophils, fold elevation of cell counts from control: 6.1 fold
[4]; 5 mg/kg s.c., after 30 minutes
  mononuclear cells (MNCs) in the blood, fold elevation from control: 2 fold
[4]; 5 mg/kg s.c., peak after 1 to 2 hours
  number of neutrophils in the blood, fold change from control at peak: > 12 fold
[4]; dose 5 mg/kg s.c., 2 hours post-injection
  number of WBC in blood, fold elevation compared to control mice (peak of dose response): 2.5 fold
[4]; intact mice, 5 mg/kg s.c.
  number of white blood cells within the BM: no changes were observed
[4]; [8]
  MNCs in blood, fold change from control: 3.5 fold
  absolute number of neutrophils in blood, fold change compared to control: ~8 fold
  activated macrophages in blood, fold change from control: 6 fold
[4]; single dose 5 mg/kg s.c.
  total WBC in blood, full return to the baseline level: 24 h
[4]; single dose 5 mg/kg s.c., after 30 minutes
  number of total WBC in blood, fold change from control: 2 fold
[4]; staining CD3, B220, Mac-1
  mobilization of T cells, B cells and monocytes (FACS): had an effect on the mobilization of T cells, B cells and monocytes
[4]; staining Nk1.1
  mobilization of NK cells (FACS): had no effect on the mobilization of NK cells
[5]
  GR-1 positive cells in the blood (flow cytometry): mobilize GR-1 positive cells to the blood and reduce neutropenia
  relative numbers (ratio) of GR-1 positive cells in the blood and BM: release cells from the inhibitory effect of the BM stroma
[6]
  survival of mice after Streptococcus A infection: save the mice from death induced by the pathogen
